# Tests used:
# SARS-CoV-2 = assay: microbe, parasite or virus in culture; assay type: cell-based; details: for EC50: Severe acute respiratory syndrome coronavirus 2, Vero C1008, Vero E6 cells, MOI 0.05, 1 hour pretreatment, viral RNA in supernatant 48 hours post infection; for SI (selectivity index): from the CC50 and EC50 values in Vero E6 cells
# [1] = Standard CCK-8 cytotoxicity assay; assay type: cell-based; details: African green monkey, Vero E6 cells, 48 hours incubation
# Description: Vero E6 African green monkey kidney cell line was obtained from American Type Culture Collection (ATCC, No. 1586) and maintained in MEM medium (MEM; Gibco Invitrogen) supplemented with 10% fetal bovine serum (FBS; Gibco Invitrogen) at 37° C. in an atmosphere of 5% CO2.
# Standard CCK-8 assays were performed to measure the cytotoxic effect of the drug candidates on Vero E6 cells, which was performed in accordance with the manufacturer's instructions (Beyotime, China).
SMILES,EC50 (SARS-CoV-2),SI (selectivity index) (SARS-CoV-2),CC50 at 48 h [1]
"CC(=O)Oc1ccccc1C(=O)Nc1ncc([N+](=O)[O-])s1 [NTZ, o-[N-(5-nitro-1,3-thiazol-2-yl)carbamoyl]phenol acetate)]",2.1 µM,17.5,36.8 µM
"NC(=O)c1ncn([C@@H]2O[C@H](CO)[C@@H](O)[C@H]2O)n1 [RBV, 1-[(2R, 3R, 4S, 5R)-3,4-dihydroxy-5-(hydroxymethyl)oxolan-2-yl]-1H-1,2,4-triazole-3-carboxamide]",109 µM,>3.7,> 400 µM

# Source: patent US20230241037A1, “CROSS-LINKED MEDICATION FOR TREATMENT OF CORONAVIRAL INFECTION AND METHOD OF TREATMENT” (1GLOBE HEALTH INSTITUTE, NANJING, priority 2020, published 2023)
